Details of experiment [1]: species or system mice. The note with it: mouse, in vivo, sc.
On the set-up of experiment [2]: species or system mice. The note with it: mouse, in vivo.
On the set-up of experiment [3]: species or system mice. The settings on record: mouse, in vivo, sc, 30 min.

With `CO[C@]12CC[C@@]3(C[C@@H]1[C@](C)(O)C(C)(C)C)[C@H]1Cc4ccc(O)c5c4[C@@]3(CCN1CC1CC1)[C@H]2O5` [Buprenorphine], the “ED50 (95% confidence limits) in the acetic acid writhing test” value in experiment [1] came to 0.00693 mg/kg. The “anti-Mor effect (in words)” value in experiment [2] was “antagonised Mor analgesia”. In addition, in experiment [2] (sc), the “AD50 (95% confidence limits), dosage required to inhibit Mor analgesia by 50%” value amounted to 1.33 mg/kg.
Regarding `CN1CC[C@]23c4c5ccc(O)c4O[C@H]2[C@@H](O)C=C[C@H]3[C@H]1C5` [Morphine], the “ED50 (95% confidence limits) in the hot plate” value in experiment [3] was determined as 5.81 mg/kg.

The values above are taken from patent US5849915A (priority 1996, dated 1998).
